Source: article PMC9964404, “Molecular Modeling and In Vitro Evaluation of Piplartine Analogs against Oral Squamous Cell Carcinoma” (Molecules, 2023)

Test system: Oral Tumor Cells (SCC9, SCC4)
Test: MTT cell viability assay, average of OSCC lines SCC9 and SCC4
Format: cell-based, human
Conditions: not given
Protocol: (§1) SCC cells (SCC9 and SCC4), derived from human tongue OSCC, were obtained by (ATCC® CRL-1629 and CRL-1624) and maintained in DMEM/F12 1:1 medium (Dulbecco’s modified Eagle’s medium and Ham’s F12 medium, Gibco (Thermo Fisher, Waltham, MA, USA), supplemented with 10% (v/v) FBS (Fetal Bovine Serum; Invitrogen, Thermo Fisher, Waltham, MA, USA) and 400 ng/mL hydrocortisone (Sigma-AldrichCo., St. Louis, MO, USA). Primary normal gingival fibroblast human (PCS201 018TM) and other tumor cells B16-F10 (CRL-6475), Hep G2 (HB-8065), and HT-29 (HTB-38) were also obtained at ATCC and maintained in DMEM supplemented with 10% (v/v) FCS. Cells were cultured in a humidified environment containing 5% CO2 at 37 °C. For all experiments, the compounds were solubilized in DMSO (Sigma-Aldrich) for a final concentration of 100 mM. From this dilution, other concentrations were made to carry out the cell viability assay. Carboplatin (Fauldcarbo®; Libbs Farmacêutica, São Paulo, SP, Brazil) was used as a control antitumor compound.
(§2) The viability of cancer cells and primary fibroblasts was tested using the MTT assay as described in MACHADO et al., 2021 [49]. Briefly, cancer cells (5 × 10^3 cells/well) were plated in duplicate in a 96-well plate, as indicated. DMSO was diluted in culture medium at the same concentrations and was used as a negative control, representing 100% cell viability. After 48 h of treatment, cells were incubated for 3.5 h with 5 mg/mL of MTT reagent (3,4,5-dimethiazol-2,5-diphenyltetrazoliumbromide) (Sigma-Aldrich Co., St. Louis, MO, USA) diluted in culture medium. Subsequently, the formazan crystals were dissolved by MTT solvent (50% Methanol and 50% DMSO), and the absorbance was read at 560 nm using the EPOCH microplate spectrophotometer (BioTekInstruments, Winooski, VT, USA).
IC50 values for the MTT assay were obtained by non-linear regression using GraphPad Prism 5.0 software (GraphPad, San Diego, CA, USA) from at least three independent experiments. […] The selectivity index was calculated as: S.I. = IC50 of the compound in fibroblasts/IC50 of the same compound in tumor cells.

SMILES	IC50 [µM]
N.N.O=C([O-])C1(C(=O)[O-])CCC1.[Pt+2] [Carboplatin, reference compound]	192

Same assay, conditions: Homo sapiens

IC50 [µM]	SMILES
376	COc1cc(C(=O)OC(C)C)cc(OC)c1OC [Compound 4, Isopropyl 3,4,5–trimethoxybenzoate]

Test system: SCC9 cells
Test: MTT cell viability (cytotoxicity) assay, SCC9
Format: cell-based, human
Conditions: not given
Protocol: as §1, §2
(§3) IC50 values for the MTT assay were obtained by non-linear regression using GraphPad Prism 5.0 software (GraphPad, San Diego, CA, USA) from at least three independent experiments. Data are presented as means, ± standard deviation (SD). A log dose response (inhibitor) vs. response curve using the least square method was used to determine the IC50 and SD of the data. The selectivity index was calculated as: S.I. = IC50 of the compound in fibroblasts/IC50 of the same compound in tumor cells.

SMILES	cytotoxic activity against SCC9 cells (in words)
CCOC(=O)c1cc(OC)c(OC)c(OC)c1 [Compound 2, Ethyl 3,4,5–trimethoxybenzoate]	no cytotoxic activity
COc1cc(C(=O)O)cc(OC)c1OC [3,4,5-Trimethoxybenzoic acid]	inactive
COc1cc(C(=O)NCc2ccc(F)cc2)cc(OC)c1OC [Compound 18, N-(4-Fluorobenzyl)-3,4,5–trimethoxybenzamide]	inactive
COc1cc(C(=O)OCc2ccc(Br)cc2)cc(OC)c1OC [Compound 10, 4-Bromo-benzyl 3,4,5–trimethoxybenzoate]	no cytotoxic activity

Same assay, conditions: 48 h treatment, MTT

SMILES	SCC9 IC50 [µg/mL]
N.N.O=C([O-])C1(C(=O)[O-])CCC1.[Pt+2] [Carboplatin, reference compound]	77.37

Same assay, conditions: 48 h treatment, MTT; read-out: SCC9 IC50

SMILES	IC50 [mM]
N.N.O=C([O-])C1(C(=O)[O-])CCC1.[Pt+2] [Carboplatin, reference compound]	0.208

Same assay, conditions: Homo sapiens, SCC-9, 48 h, read-out: SCC9 IC50 (class N.D.)

SMILES	IC50 [mM]
COc1cc(C(=O)O)cc(OC)c1OC [3,4,5-Trimethoxybenzoic acid]	> 1

Same assay, conditions: Homo sapiens, SCC-9; 48 h treatment, MTT; N.D. = not determined, not toxic to SCC cells; read-out: SCC9 IC50 (class N.D.)

SMILES	IC50 [mM]
COc1cc(C(=O)NCc2ccccc2)cc(OC)c1OC [Compound 17, N-Benzyl-3,4,5–trimethoxybenzamide]	> 1
COc1cc(C(=O)NCc2ccc(O)cc2)cc(OC)c1OC [Compound 16, N-4-Hydroxybenzyl-3,4,5–trimethoxybenzamide]	> 1
CCOC(=O)c1cc(OC)c(OC)c(OC)c1 [Compound 2, Ethyl 3,4,5–trimethoxybenzoate]	> 1
COc1cc(C(=O)NCc2ccc(Cl)cc2)cc(OC)c1OC [Compound 19, N-4-Chlorobenzyl-3,4,5–trimethoxybenzamide]	> 1
COc1cc(C(=O)NC2CCCCC2)cc(OC)c1OC [Compound 15, N-Cyclohexyl-3,4,5–trimethoxybenzamide]	> 1
COc1cc(C(=O)NCc2ccc(F)cc2)cc(OC)c1OC [Compound 18, N-(4-Fluorobenzyl)-3,4,5–trimethoxybenzamide]	> 1
COc1cc(C(=O)OCc2ccc(Br)cc2)cc(OC)c1OC [Compound 10, 4-Bromo-benzyl 3,4,5–trimethoxybenzoate]	> 1

Same assay, conditions: Homo sapiens, SCC-9; 48 h treatment, MTT; read-out: SCC9 IC50

SMILES	IC50 [mM]
COc1cc(C(=O)OC(C)C)cc(OC)c1OC [Compound 4, Isopropyl 3,4,5–trimethoxybenzoate]	0.373

Same assay, conditions: Homo sapiens, SCC-9; 48 h treatment, MTT; read-out: SCC9 IC50 (µg/mL)

SMILES	IC50 [µg/mL]
COc1cc(C(=O)OC(C)C)cc(OC)c1OC [Compound 4, Isopropyl 3,4,5–trimethoxybenzoate]	94.9

Test system: not given
Test: not given
Conditions: not given

melting point [°C]	SMILES
53 to 54	CCOC(=O)c1cc(OC)c(OC)c(OC)c1 [Compound 2, Ethyl 3,4,5–trimethoxybenzoate]
179 to 180	COc1cc(C(=O)NC2CCCCC2)cc(OC)c1OC [Compound 15, N-Cyclohexyl-3,4,5–trimethoxybenzamide]
104 to 105	COc1cc(C(=O)OCc2ccc(Br)cc2)cc(OC)c1OC [Compound 10, 4-Bromo-benzyl 3,4,5–trimethoxybenzoate]

Continued, compound first:

SMILES	melting point [°C]
COc1cc(C(=O)NCc2ccccc2)cc(OC)c1OC [Compound 17, N-Benzyl-3,4,5–trimethoxybenzamide]	138 to 139
COc1cc(C(=O)NCc2ccc(O)cc2)cc(OC)c1OC [Compound 16, N-4-Hydroxybenzyl-3,4,5–trimethoxybenzamide]	227 to 229
COc1cc(C(=O)NCc2ccc(Cl)cc2)cc(OC)c1OC [Compound 19, N-4-Chlorobenzyl-3,4,5–trimethoxybenzamide]	157 to 158
COc1cc(C(=O)NCc2ccc(F)cc2)cc(OC)c1OC [Compound 18, N-(4-Fluorobenzyl)-3,4,5–trimethoxybenzamide]	131 to 132

Test system: Primary Gingival Fibroblast
Test: MTT cell viability assay, normal fibroblasts
Format: cell-based, human
Conditions: 48 h treatment
Protocol: as §1, §2, §3

SMILES	Primary Gingival Fibroblast IC50 [µg/mL]
N.N.O=C([O-])C1(C(=O)[O-])CCC1.[Pt+2] [Carboplatin, reference compound]	190.19

Same assay, conditions: 48 h treatment, read-out: Primary Gingival Fibroblast IC50

SMILES	IC50 [mM]
N.N.O=C([O-])C1(C(=O)[O-])CCC1.[Pt+2] [Carboplatin, reference compound]	0.512

Same assay, conditions: Homo sapiens, Fibroblast, 48 h treatment, read-out: Primary Gingival Fibroblast IC50

SMILES	IC50 [mM]
COc1cc(C(=O)OC(C)C)cc(OC)c1OC [Compound 4, Isopropyl 3,4,5–trimethoxybenzoate]	1.79

Same assay, conditions: Homo sapiens, Fibroblast, 48 h treatment, read-out: Primary Gingival Fibroblast IC50 (µg/mL)

SMILES	IC50 [µg/mL]
COc1cc(C(=O)OC(C)C)cc(OC)c1OC [Compound 4, Isopropyl 3,4,5–trimethoxybenzoate]	456

Test system: SCC4 cells
Test: MTT cell viability assay, SCC4
Format: cell-based, human
Conditions: 48 h treatment, read-out: SCC4 IC50
Protocol: as §1, §2, §3

SMILES	IC50 [µM]
N.N.O=C([O-])C1(C(=O)[O-])CCC1.[Pt+2] [Carboplatin, reference compound]	175

Same assay, conditions: Homo sapiens, SCC-4, 48 h treatment, read-out: SCC4 IC50

SMILES	IC50 [µM]
COc1cc(C(=O)OC(C)C)cc(OC)c1OC [Compound 4, Isopropyl 3,4,5–trimethoxybenzoate]	454
